# Experimental data as given in US20050004038A1, “Bivalent inhibitors of Glutathione-S-Transferases” (priority 2003, published 2005).
# Values joined by “and” are separate entries in the source; they are usually repeats but may differ in a detail not shown here. Equal values may be shown once.
# Tests used:
# [1] = target: T1, human glutathione S-transferase P1-1 (GSTP1-1) (Homo sapiens, UniProt P09211); assay: CDNB assay of GST activity and inhibition, GST P1-1; assay type: biochemical; conditions: for IC50: first value of the cell GSTP1-1/GSTA1-1, CDNB assay, 20 nM GST; for fold greater affinity for GSTP1-1 (lower IC50) than the ligand domain alone: versus corresponding ligand domain (GS-NB/IId, IIg, IIId, IVk)
# T1 construct: made in house; host or cells: E. coli
# T1 sequence (P09211 2-210 limits assumed): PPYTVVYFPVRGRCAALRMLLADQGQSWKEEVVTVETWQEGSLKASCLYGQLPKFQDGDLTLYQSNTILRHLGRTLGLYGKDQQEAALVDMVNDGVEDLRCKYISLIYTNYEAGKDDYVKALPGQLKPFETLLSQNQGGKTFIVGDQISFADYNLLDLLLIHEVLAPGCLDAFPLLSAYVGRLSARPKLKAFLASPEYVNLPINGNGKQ
# Protocol: (§1) GST isozymes. […] The enzyme was incubated with 10 mM dithiothreitol to ensure complete reduction of cysteine residues, followed by extensive dialysis to remove the reducing agent. […] Plasmodium GST (pGST) was a gift from Dr. Katja Becker (Justus Liebig University of Giessen), and murine GSTP and GSTA were gifts from Dr. Dave Eaton (University of Washington). Except where otherwise stated (i.e. testing of pGST in Example 6.4.5 and testing of murine GSTs in Example 6.4.7), GST isozymes tested were from human.
# (§2) GST assays. Assays of GST activity and inhibition were performed with chloro-2,4-dinitrobenzene (CDNB) as the electrophilic substrate. Except where otherwise stated, GST concentration was 20 nM. […] Rates were determined by measuring absorption at 340 nm (λmax of glutathione-dinitrobenzene) for 1 minute on a Beckman DU 7400 spectrophotometer. For IC50 determinations, assays were performed at inhibitor concentrations ranging over at least […] (from 100-fold above the IC50 to 100-fold below). Data were fit to a sigmoidal dose-response function using GraphPad Prism to determine the 50% inhibitory concentration.
# [2] = target: T2, human glutathione S-transferase A1-1 (GSTA1-1) (Homo sapiens, UniProt P08263); assay: CDNB assay of GST activity and inhibition, GST A1-1; assay type: biochemical; conditions: second value of the cell GSTP1-1/GSTA1-1, 20 nM GST
# T2 construct: made in house; host or cells: E. coli
# T2 sequence (P08263 1-222): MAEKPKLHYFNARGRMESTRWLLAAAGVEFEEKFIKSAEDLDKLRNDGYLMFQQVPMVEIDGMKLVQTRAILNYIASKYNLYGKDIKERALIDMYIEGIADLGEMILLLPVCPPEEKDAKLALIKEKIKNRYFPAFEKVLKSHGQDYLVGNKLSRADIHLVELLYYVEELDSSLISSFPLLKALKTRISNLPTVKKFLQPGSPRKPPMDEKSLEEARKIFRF
# Protocol: as §1, §2
SMILES,IC50 [1],IC50 [2],fold greater affinity for GSTP1-1 (lower IC50) than the ligand domain alone [1],fold lower IC50 for GSTP1-1 than the monovalent inhibitor ([1]; versus IVj),isozyme specificity GSTP1-1 versus GSTA1-1 ([1]; in words)
"CCNCCS(=O)(=O)c1cccc(Nc2cc(S(=O)(=O)O)c(N)c3c2C(=O)c2ccccc2C3=O)c1 [IIId*, reference compound]",5000 nM,> 100000 nM,,,
Nc1c(S(=O)(=O)O)cc(Nc2cccc(S(=O)(=O)CCNCCCNC(=O)c3cccc(C(=O)NCCCNCCS(=O)(=O)c4cccc(Nc5cc(S(=O)(=O)O)c(N)c6c5C(=O)c5ccccc5C6=O)c4)c3)c2)c2c1C(=O)c1ccccc1C2=O [IIIc],440 nM,> 100000 nM,,,
"CCOC(=O)c1ccc(SCC(NC(=O)CCC(N)C(=O)O)C(=O)NCC(=O)O)c([N+](=O)[O-])c1 (centres unmarked) [IId*, reference compound]",21000 nM,30000 nM,,,no substantial isozyme specificity
CCC(CSCC(NC(=O)CCC(N)C(=O)O)C(=O)NCC(=O)O)C(=O)c1ccc(OCC(=O)NCCCC(=O)NCc2cc(CNC(=O)CCCNC(=O)COc3ccc(C(=O)C(CC)CSCC(NC(=O)CCC(N)C(=O)O)C(=O)NCC(=O)O)c(Cl)c3Cl)cc(C(N)=O)c2)c(Cl)c1Cl (centres unmarked) [IIe],353 nM,3.8 nM,30 fold,,
NC(CCC(=O)NC(CSc1ccc(C(=O)OCCOC(=O)c2cccc(C(=O)OCCOC(=O)c3ccc(SCC(NC(=O)CCC(N)C(=O)O)C(=O)NCC(=O)O)c([N+](=O)[O-])c3)c2)cc1[N+](=O)[O-])C(=O)NCC(=O)O)C(=O)O (centres unmarked) [IIb],2900 nM,1600 nM,,,
NC(=O)c1cc(CNC(=O)CCCCCNCCS(=O)(=O)c2cccc(Nc3cc(S(=O)(=O)O)c(N)c4c3C(=O)c3ccccc3C4=O)c2)cc(CNC(=O)CCCCCNCCS(=O)(=O)c2cccc(Nc3cc(S(=O)(=O)O)c(N)c4c3C(=O)c3ccccc3C4=O)c2)c1 [IIIi],203 nM,> 1000 nM,,,
NC(CCC(=O)NC(CSc1ccc(C(=O)OCCOCCOCCOCCOC(=O)c2ccc(SCC(NC(=O)CCC(N)C(=O)O)C(=O)NCC(=O)O)c([N+](=O)[O-])c2)cc1[N+](=O)[O-])C(=O)NCC(=O)O)C(=O)O (centres unmarked) [IIa],4500 nM,29000 nM,,,
"NC(=O)c1cccc(CNC(=O)CCCNCCS(=O)(=O)c2cccc(Nc3cc(S(=O)(=O)O)c(N)c4c3C(=O)c3ccccc3C4=O)c2)c1 [IIIl*, reference compound]",854 nM,> 20000 nM,approximately 6 fold,,
NC(=O)c1cc(CNC(=O)CCNCCS(=O)(=O)c2cccc(Nc3cc(S(=O)(=O)O)c(N)c4c3C(=O)c3ccccc3C4=O)c2)cc(CNC(=O)CCNCCS(=O)(=O)c2cccc(Nc3cc(S(=O)(=O)O)c(N)c4c3C(=O)c3ccccc3C4=O)c2)c1 [IIIg],162 nM,2500 nM,,,
Nc1c(S(=O)(=O)O)cc(Nc2cccc(S(=O)(=O)CCNCCOCCOCCOCCNCCS(=O)(=O)c3cccc(Nc4cc(S(=O)(=O)O)c(N)c5c4C(=O)c4ccccc4C5=O)c3)c2)c2c1C(=O)c1ccccc1C2=O [IIIb],72 nM,> 100000 nM,,,
NC(=O)c1cc(CNCCS(=O)(=O)c2cccc(Nc3cc(S(=O)(=O)O)c(N)c4c3C(=O)c3ccccc3C4=O)c2)cc(CNCCS(=O)(=O)c2cccc(Nc3cc(S(=O)(=O)O)c(N)c4c3C(=O)c3ccccc3C4=O)c2)c1 [IIIe],557 nM,> 10000 nM,,,
NC(=O)c1cc(CNC(=O)CCCNCCS(=O)(=O)c2cccc(Nc3cc(S(=O)(=O)O)c(N)c4c3C(=O)c3ccccc3C4=O)c2)cc(CNC(=O)CCCNCCS(=O)(=O)c2cccc(Nc3cc(S(=O)(=O)O)c(N)c4c3C(=O)c3ccccc3C4=O)c2)c1 [IIIh],~22 nM and 22 nM,> 1000 nM,approximately 220 fold,,
Nc1c(S(=O)(=O)O)cc(Nc2cccc(S(=O)(=O)CCNCCOCCOCCNCCS(=O)(=O)c3cccc(Nc4cc(S(=O)(=O)O)c(N)c5c4C(=O)c4ccccc4C5=O)c3)c2)c2c1C(=O)c1ccccc1C2=O [IIIa],44 nM,> 100000 nM,,,
NC(=O)c1cc(CNC(=O)CCCCCCCNCCS(=O)(=O)c2cccc(Nc3cc(S(=O)(=O)O)c(N)c4c3C(=O)c3ccccc3C4=O)c2)cc(CNC(=O)CCCCCCCNCCS(=O)(=O)c2cccc(Nc3cc(S(=O)(=O)O)c(N)c4c3C(=O)c3ccccc3C4=O)c2)c1 [IIIj],267 nM,> 220 nM,,,

# Further lines, with some results ahead:
IC50 [1],IC50 [2],fold greater affinity for GSTP1-1 (lower IC50) than the ligand domain alone [1],fold lower IC50 for GSTP1-1 than the monovalent inhibitor ([1]; versus IVj),SMILES,isozyme specificity GSTP1-1 versus GSTA1-1 ([1]; in words)
80 nM,160 nM,,,NC(CCC(=O)NC(CSCCCCCCCCCCOC(=O)CCCCCCCSCC(NC(=O)CCC(N)C(=O)O)C(=O)NCC(=O)O)C(=O)NCC(=O)O)C(=O)O (centres unmarked) [Ic],
> 10000 nM,1310 nM,,,"C=C(CC)C(=O)c1ccc(OCC(=O)Nc2ccc(NC(=O)COc3ccc(C(=O)C(=C)CC)c(Cl)c3Cl)cc2)c(Cl)c1Cl [IVb, Bis-1,4-ethacrynyl-phenylenediamine]",
24800 nM,> 10000 nM,,,NC(=O)c1cc(CNC(=O)CCCNC(=O)CSCC(NC(=O)CCC(N)C(=O)O)C(=O)NCC(=O)O)cc(CNC(=O)CCCNC(=O)CSCC(NC(=O)CCC(N)C(=O)O)C(=O)NCC(=O)O)c1 (centres unmarked) [Ig],
> 10000 nM,741 nM,,,"C=C(CC)C(=O)c1ccc(OCC(=O)Nc2cccc(NC(=O)COc3ccc(C(=O)C(=C)CC)c(Cl)c3Cl)c2)c(Cl)c1Cl [IVa, Bis-1,3-ethacrynyl-phenylenediamine]",
1200 nM,12 nM and 12.3 nM,,,C=C(CC)C(=O)c1ccc(OCC(=O)NCCC(=O)NCc2cc(CNC(=O)CCNC(=O)COc3ccc(C(=O)C(=C)CC)c(Cl)c3Cl)cc(C(N)=O)c2)c(Cl)c1Cl [IVe],
589 nM,14 nM,,,C=C(CC)C(=O)c1ccc(OCC(=O)NCCCC(=O)NCc2cc(CNC(=O)CCCNC(=O)COc3ccc(C(=O)C(=C)CC)c(Cl)c3Cl)cc(C(N)=O)c2)c(Cl)c1Cl [IVf],
200 nM,110 nM,,,NC(CCC(=O)NC(CSCCCCCCCCCCCOC(=O)CCCCCCCSCC(NC(=O)CCC(N)C(=O)O)C(=O)NCC(=O)O)C(=O)NCC(=O)O)C(=O)O (centres unmarked) [Id],
31 nM,54 nM,approximately 129 fold,403 fold,C=C(CC)C(=O)c1ccc(OCC(=O)NCCCCCCCC(=O)NCc2cc(CNC(=O)CCCCCCCNC(=O)COc3ccc(C(=O)C(=C)CC)c(Cl)c3Cl)cc(C(N)=O)c2)c(Cl)c1Cl [IVh],
1500 nM,5830 nM,,,"CCC(CSCC(NC(=O)CCC(N)C(=O)O)C(=O)NCC(=O)O)C(=O)c1ccc(OCC(=O)NCCCC(=O)NCc2cccc(C(N)=O)c2)c(Cl)c1Cl (centres unmarked) [IIf*, reference compound]",
280 nM,3300 nM,,,NC(CCC(=O)NC(CSc1ccc(C(=O)OCCCOC(=O)c2cccc(C(=O)OCCCOC(=O)c3ccc(SCC(NC(=O)CCC(N)C(=O)O)C(=O)NCC(=O)O)c([N+](=O)[O-])c3)c2)cc1[N+](=O)[O-])C(=O)NCC(=O)O)C(=O)O (centres unmarked) [IIc],
39300 nM,> 10000 nM,,,"NC(=O)c1cccc(CNC(=O)CCCC(=O)NCSCC(NC(=O)CCC(N)C(=O)O)C(=O)NCC(=O)O)c1 (centres unmarked) [Ih*, reference compound]",
190 nM,140 nM,,,NC(CCC(=O)NC(CSCCCCCCCCCCCCOC(=O)CCCCCCCSCC(NC(=O)CCC(N)C(=O)O)C(=O)NCC(=O)O)C(=O)NCC(=O)O)C(=O)O (centres unmarked) [Ie],
360 nM,200 nM,,,NC(CCC(=O)NC(CSCCCCCCCCOC(=O)CCCCCCCSCC(NC(=O)CCC(N)C(=O)O)C(=O)NCC(=O)O)C(=O)NCC(=O)O)C(=O)O (centres unmarked) [Ia],
992 nM,29.7 nM,,,C=C(CC)C(=O)c1ccc(OCC(=O)NCc2cc(CNC(=O)COc3ccc(C(=O)C(=C)CC)c(Cl)c3Cl)cc(C(N)=O)c2)c(Cl)c1Cl [IVc],
